Assay results as given in the supplement of paper PMC11061612.

Key:
Assay in all cases: Bliss excess, mean over the matrix (fraction); higher = more synergy
[1] = test system: NCI-H1975 (Lung Adenocarcinoma)
Method in brief: (§1)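 Cell lines in DMEM/F12 or RPMI with 10% FBS were plated in 1536-well plates, held 24 hours at 37°C, 5% CO2, then given two-drug dose matrices for 72 hours (DMSO typically 0.2%). Viability was read by CellTiter-Glo 2.0 luminescence and scaled as inhibition from 0 (vehicle wells) to 1 (blank wells). Combination Emax is the second-highest inhibition in the matrix; Bliss excess is observed combination effect minus expected EA + EB − EA·EB, EA and EB being single-agent effects.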

[2] = test system: NCI-H1048 (Small Cell Lung Carcinoma)
Method in brief: as §1

[3] = test system: HT-3 (Cervical Carcinoma)
Method in brief: as §1

[4] = test system: NCI-H1648 (Lung Adenocarcinoma)
Method in brief: as §1

[5] = test system: TK (B-Cell Non-Hodgkin's Lymphoma)
Method in brief: as §1

[6] = test system: NCI-H2009 (Lung Adenocarcinoma)
Method in brief: as §1

[7] = test system: JJN-3 (Plasma Cell Myeloma)
Method in brief: as §1

[8] = test system: MRK-nu-1 (Breast Carcinoma)
Method in brief: as §1

[9] = test system: CAL-85-1 (Breast Carcinoma)
Method in brief: as §1

[10] = test system: C2BBe1 (Colorectal Carcinoma)
Method in brief: as §1

[11] = test system: GRANTA-519 (B-Cell Non-Hodgkin's Lymphoma)
Method in brief: as §1

[12] = test system: L-363 (Plasma Cell Myeloma)
Method in brief: as §1

SK-MEL-24 (Melanoma) = test system: SK-MEL-24 (Melanoma)
Method in brief: as §1

[13] = test system: JURL-MK1 (Chronic Myelogenous Leukemia)
Method in brief: as §1

[14] = test system: IGROV-1 (Ovarian Carcinoma)
Method in brief: as §1

[15] = test system: NCI-H835 (Other Solid Carcinomas)
Method in brief: as §1

[16] = test system: KNS-62 (Squamous Cell Lung Carcinoma)
Method in brief: as §1

[17] = test system: BT-474 (Breast Carcinoma)
Method in brief: as §1

[18] = test system: TOV-21G (Ovarian Carcinoma)
Method in brief: as §1

A375 (Melanoma) = test system: A375 (Melanoma)
Method in brief: as §1

| Compound | Bliss excess [1] | Bliss excess [2] | Bliss excess [3] | Bliss excess [4] | Bliss excess [5] | Bliss excess [6] | Bliss excess [7] | Bliss excess [8] | Bliss excess [9] | Bliss excess [10] | Bliss excess [11] | Bliss excess [12] | Bliss excess (SK-MEL-24 (Melanoma)) | Bliss excess [13] | Bliss excess [14] | Bliss excess [15] | Bliss excess [16] | Bliss excess [17] | Bliss excess [18] | Bliss excess (A375 (Melanoma)) |
| --- | --- | --- | --- | --- | --- | --- | --- | --- | --- | --- | --- | --- | --- | --- | --- | --- | --- | --- | --- | --- |
| NC1(C(=O)N[C@@H](CCO)c2ccc(Cl)cc2)CCN(c2ncnc3[nH]ccc23)CC1 [Capivasertib] + CC(C)n1c(=O)n(C)c2cnc3cc(F)c(-c4ccc(OCCCN5CCCCC5)nc4)cc3c21 [AZD1390] (first compound max 10 µM, 7x7, partner max 0.3 µM) | -0.0165 | -0.037 | -0.035 | -0.0077 | -0.0045 | -0.0648 | -0.0105 | -0.0985 | -0.0213 | -0.0856 | -0.0859 | -0.0749 | -0.0251 | -0.0489 | -0.0147 | -0.179 | -0.0458 | -0.0406 | -0.0076 | -0.0496 |
| CCc1c2c(nc3ccc(O)cc13)-c1cc3c(c(=O)n1C2)COC(=O)[C@]3(O)CC [SN-38] + CN(C)CCCOc1ccc(-c2ccc3ncc4c(c3c2)n(C2CCOCC2)c(=O)n4C)cn1 [AZD0156] (first compound max 0.3 µM, 7x7, partner max 1 µM) | 0.006 | 0.0147 | 0.0499 | -0.0451 | 0.0322 | 0.126 | 0.0183 | -0.0534 | -0.0349 | -0.0179 | -0.0359 | 0.0206 | 0.0267 | 0.0551 | -0.0101 | -0.0382 | -0.0557 | -0.047 | -0.0349 | 0.0168 |
| COc1nnc2ccc(N3CCC(c4ccc(OCCN5CCN(C)C(=O)[C@H]5C)cc4)CC3)nn12 [AZD5153] + C=CCn1c(=O)c2cnc(Nc3ccc(N4CCN(C)CC4)cc3)nc2n1-c1cccc(C(C)(C)O)n1 [AZD1775] (first compound max 1 µM, partner max 1 µM) | 0.0251 | -0.0823 | -0.0104 | -0.0816 | -0.0554 | -0.0229 | -0.0673 | -0.0354 | -0.0551 | -0.0724 | -0.0227 | -0.0546 | -0.0421 | -0.0006 | -0.0858 | -0.0618 | -0.0371 | -0.0279 | -0.0246 | -0.0212 |
| CN(C)CCCOc1ccc(-c2ccc3ncc4c(c3c2)n(C2CCOCC2)c(=O)n4C)cn1 [AZD0156] + O=C(c1cc(Cc2n[nH]c(=O)c3ccccc23)ccc1F)N1CCN(C(=O)C2CC2)CC1 [Olaparib] (first compound max 3 µM, partner max 3 µM) | 0.0548 | 0.0772 | 0.0386 | 0.0271 | 0.0213 | 0.16 | 0.0264 | -0.0198 | -0.039 | -0.0428 | 0.0079 | -0.0073 | 0.0037 | 0.157 | 0.0623 | 0.0053 | 0.0435 | -0.0189 | -0.0054 | 0.0591 |
| COc1nnc2ccc(N3CCC(c4ccc(OCCN5CCN(C)C(=O)[C@H]5C)cc4)CC3)nn12 [AZD5153] + Cc1c2c(nn1C)CSCc1cc(n(C)n1)CSc1cc(c3ccccc3c1)OCCCc1c(C(=O)O)n(C)c3c-2c(Cl)ccc13 [AZD5991] (first compound max 1 µM, 7x7, partner max 1 µM) | -0.0138 | 0.0059 | 0.0362 | -0.0712 | -0.0019 | -0.0271 | -0.0268 | 0.0346 | -0.0157 | -0.041 | -0.0164 | -0.007 | -0.003 | -0.055 | -0.0069 | -0.115 | -0.0459 | -0.0012 | -0.0337 | -0.0215 |
| COc1cccc2c1C(=O)c1c(O)c3c(c(O)c1C2=O)C[C@@](O)(C(=O)CO)C[C@@H]3O[C@H]1C[C@H](N)[C@H](O)[C@H](C)O1 [Doxorubicin] + Cc1cc2ncnn2cc1Nc1ncc2c(n1)n(C1CCOCC1)c(=O)n2C [AZD7648] (first compound max 1 µM, 7x7, partner max 10 µM) | 0.0542 | 0.0539 | 0.127 | 0.0456 | 0.0292 | 0.0653 | 0.0238 | 0.0157 | 0.0095 | -0.0082 | 0.102 | 0.0622 | 0.0399 | 0.0792 | 0.0222 | 0.0207 | -0.0075 | -0.0356 | 0.0091 | 0.09 |
| COc1nnc2ccc(N3CCC(c4ccc(OCCN5CCN(C)C(=O)[C@H]5C)cc4)CC3)nn12 [AZD5153] + CCN(CCO)CCCOc1ccc2c(Nc3cc(CC(=O)Nc4cccc(F)c4)[nH]n3)ncnc2c1 [AZD2811] (first compound max 1 µM, 7x7, partner max 1 µM) | -0.005 | -0.042 | -0.0644 | -0.0494 | 0.0124 | -0.0155 | 0.0098 | 0.0096 | -0.0411 | -0.0364 | 0.0771 | -0.0259 | -0.102 | -0.0258 | -0.0574 | -0.0626 | -0.0382 | -0.0197 | -0.0249 | -0.0295 |
| CC(=O)c1c(C)c2cnc(Nc3ccc(N4CCNCC4)cn3)nc2n(C2CCCC2)c1=O [Palbociclib] + CC1(C)CCC(CN2CCN(c3ccc(C(=O)NS(=O)(=O)c4ccc(NCC5CCOCC5)c([N+](=O)[O-])c4)c(Oc4cnc5[nH]ccc5c4)c3)CC2)=C(c2ccc(Cl)cc2)C1 [Venetoclax] (first compound max 10 µM, 7x7, partner max 1 µM) | -0.0254 | -0.0339 | -0.0529 | -0.0254 | 0.0332 | -0.0543 | -0.0357 | -0.0262 | -0.0457 | -0.0656 | 0.0884 | -0.0262 | -0.0586 | -0.0716 | 0.0026 | -0.143 | -0.0152 | -0.0444 | -0.025 | -0.0197 |
| CC1(C)CCC(CN2CCN(c3ccc(C(=O)NS(=O)(=O)c4ccc(NCC5CCOCC5)c([N+](=O)[O-])c4)c(Oc4cnc5[nH]ccc5c4)c3)CC2)=C(c2ccc(Cl)cc2)C1 [Venetoclax] + CS(=O)(=O)CCNCc1ccc(-c2ccc3ncnc(Nc4ccc(OCc5cccc(F)c5)c(Cl)c4)c3c2)o1 [Lapatinib] (first compound max 1 µM, 7x7, partner max 10 µM) | – | – | – | 0.04 | – | -0.0358 | – | -0.0243 | -0.044 | – | – | -0.0033 | -0.0188 | – | – | -0.0206 | -0.0116 | – | – | -0.0207 |
| C[C@@H](Oc1cc(-c2cnn(C3CCNCC3)c2)cnc1N)c1c(Cl)ccc(F)c1Cl [Crizotinib] + Cn1cnc2c(F)c(Nc3ccc(Br)cc3Cl)c(C(=O)NOCCO)cc21 [Selumetinib] (first compound max 10 µM, 7x7, partner max 10 µM) | – | – | – | -0.108 | – | 0.0062 | – | -0.0633 | -0.055 | – | – | 0.0316 | -0.0034 | – | – | -0.0653 | -0.042 | – | – | 0.0035 |
| C[C@@H]1COCCN1c1cc(C2([S@](C)(=N)=O)CC2)nc(-c2ccnc3[nH]ccc23)n1 [AZD6738] + Nc1ccn([C@@H]2O[C@H](CO)[C@@H](O)C2(F)F)c(=O)n1 [Gemcitabine] (first compound max 10 µM, 7x7, partner max 0.3 µM) | – | – | – | 0.0542 | – | 0.0954 | – | -0.0532 | 0.0227 | – | – | 0.0716 | 0.0379 | – | – | 0.0442 | 0.0023 | – | – | 0.0602 |
| C[C@@H](Oc1cc(-c2cnn(C3CCNCC3)c2)cnc1N)c1c(Cl)ccc(F)c1Cl [Crizotinib] + CC1=C(C(=CC=C1)Cl)NC(=O)C2=CN=C(S2)NC3=CC(=NC(=N3)C)N4CCN(CC4)CCO [Dasatinib] (first compound max 10 µM, 7x7, partner max 2 µM) | – | – | – | 0.0331 | – | 0.0662 | – | -0.0711 | 0.001 | – | – | 0.004 | -0.0523 | – | – | 0.0045 | -0.0258 | – | – | -0.0256 |
| C[C@@H](Nc1cc(F)cc(F)c1)c1cc(C(=O)N(C)C)cc2c(=O)cc(N3CCOCC3)oc12 [AZD8186] + C1CN(CCC1(C(=O)N[C@@H](CCO)C2=CC=C(C=C2)Cl)N)C3=NC=NC4=C3C=CN4 [AZD5363] (first compound max 10 µM, 7x7, partner max 10 µM) | – | – | – | -0.0377 | – | -0.034 | – | -0.0418 | -0.0285 | – | – | -0.0138 | -0.0455 | – | – | -0.0164 | -0.0302 | – | – | 0.011 |
| Cc1nc(-c2cn3c(n2)-c2ccc(-c4cnn(C(C)(C)C(N)=O)c4)cc2OCC3)n(C(C)C)n1 [Taselisib] + O=C(Nc1ccc2[nH]nc(-c3ccncc3)c2c1)[C@@H]1CCN(CC(=O)N2CCN(c3ccc(-c4ncccn4)cc3)CC2)C1 [SCH772984] (first compound max 10 µM, 7x7, partner max 5 µM) | – | – | – | 0.115 | – | 0.0964 | – | 0.0385 | 0.0682 | – | – | 0.176 | 0.0017 | – | – | 0.0323 | 0.0108 | – | – | 0.133 |
| CCc1c2c(nc3ccc(O)cc13)-c1cc3c(c(=O)n1C2)COC(=O)[C@]3(O)CC [SN-38] + O=C(c1cc(Cc2n[nH]c(=O)c3ccccc23)ccc1F)N1CCN(C(=O)C2CC2)CC1 [Olaparib] (first compound max 0.3 µM, 7x7, partner max 10 µM) | 0.0248 | 0.0934 | 0.0669 | 0.0133 | – | 0.14 | 0.0187 | 0.0478 | 0.059 | – | – | 0.0309 | 0.0007 | 0.0401 | – | 0.017 | 0.0497 | – | – | 0.0588 |
| CS(=O)(=O)CCNCc1ccc(-c2ccc3ncnc(Nc4ccc(OCc5cccc(F)c5)c(Cl)c4)c3c2)o1 [Lapatinib] + NC1(c2ccc(-c3nc4ccn5c(=O)[nH]nc5c4cc3-c3ccccc3)cc2)CCC1 [MK-2206] (first compound max 10 µM, 7x7, partner max 10 µM) | – | – | – | 0.0349 | – | -0.0246 | 0.0508 | 0.0505 | -0.0016 | – | – | 0.026 | -0.0572 | – | – | 0.0357 | 0.0408 | – | – | -0.0031 |
| O=C(c1cc(Cc2n[nH]c(=O)c3ccccc23)ccc1F)N1CCN(C(=O)C2CC2)CC1 [Olaparib] + COc1nnc2ccc(N3CCC(c4ccc(OCCN5CCN(C)C(=O)[C@H]5C)cc4)CC3)nn12 [AZD5153] (first compound max 10 µM, 7x7, partner max 1 µM) | – | – | – | -0.0388 | – | -0.044 | – | 0.0665 | -0.026 | – | – | 0.0357 | -0.0814 | – | – | -0.0422 | -0.0631 | – | – | -0.0229 |
